From the NIST ThermoML archive (doi:10.1021/je100410k) come the findings set out here.

The data set can be described thus: activity coefficient (dimensionless); of the first substance listed, at infinite dilution; xn = mol fraction of the nth substance listed. The conditions noted are these: 101 kPa, Liquid, Chromatography, x1 = 0.

± gives the expanded uncertainty stated by the source.

As to `Cc1ccccc1C` [1,2-dimethylbenzene] + CCCCn1cc[n+](C)c1.Cc1ccc(S(=O)(=O)[O-])cc1, the activity coefficient by setting is: (338.2 K) 4.07 ± 0.28; (348.2 K) 4.01 ± 0.27; (358.2 K) 3.96 ± 0.27; (368.2 K) 3.93 ± 0.27.

As for `Cc1cccc(C)c1` [1,3-dimethylbenzene] + CCCCn1cc[n+](C)c1.Cc1ccc(S(=O)(=O)[O-])cc1, the activity coefficient came to 4.76 ± 0.32 (338.2 K), 4.67 ± 0.32 (348.2 K), 4.63 ± 0.32 (358.2 K) and 4.58 ± 0.31 (368.2 K).

As to `Cc1ccc(C)cc1` [1,4-dimethylbenzene] + CCCCn1cc[n+](C)c1.Cc1ccc(S(=O)(=O)[O-])cc1, the activity coefficient was determined as 4.73 ± 0.32 (338.2 K), 4.64 ± 0.32 (348.2 K), 4.61 ± 0.31 (358.2 K) and 4.56 ± 0.31 (368.2 K).

In the case of `C=CCCCCC` [1-heptene] + CCCCn1cc[n+](C)c1.Cc1ccc(S(=O)(=O)[O-])cc1, the activity coefficient (338.2 K) turned out to be 24.2 ± 1.7, the activity coefficient (348.2 K) is 22.5 ± 1.5, the activity coefficient (358.2 K) was 21.5 ± 1.5 and the activity coefficient (368.2 K) is 20.4 ± 1.4.

For the compound `C#CCCCCC` [1-heptyne] + CCCCn1cc[n+](C)c1.Cc1ccc(S(=O)(=O)[O-])cc1, the activity coefficient turned out to be 5.13 ± 0.35 (338.2 K), 5.23 ± 0.36 (348.2 K), 5.34 ± 0.36 (358.2 K) and 5.43 ± 0.37 (368.2 K).

On to `C#CCCCC` [1-hexyne] + CCCCn1cc[n+](C)c1.Cc1ccc(S(=O)(=O)[O-])cc1, for which the activity coefficient reads like this: (338.2 K) 3.69 ± 0.25; (348.2 K) 3.78 ± 0.26; (358.2 K) 3.86 ± 0.26; (368.2 K) 3.94 ± 0.27.

Consider `C#CCCCCCC` [1-octyne] + CCCCn1cc[n+](C)c1.Cc1ccc(S(=O)(=O)[O-])cc1, for which the activity coefficient reads like this: (338.2 K) 7.12 ± 0.49; (348.2 K) 7.28 ± 0.5; (358.2 K) 7.39 ± 0.5; (368.2 K) 7.15 ± 0.49.

On to `C=CCCC` [1-pentene] + CCCCn1cc[n+](C)c1.Cc1ccc(S(=O)(=O)[O-])cc1, for which the activity coefficient was determined as 13.7 ± 0.9 (338.2 K), 12.6 ± 0.9 (348.2 K), 11.9 ± 0.8 (358.2 K) and 11.2 ± 0.8 (368.2 K).

Regarding `COC(C)(C)C` [2-methoxy-2-methylpropane] + CCCCn1cc[n+](C)c1.Cc1ccc(S(=O)(=O)[O-])cc1, the activity coefficient (338.2 K) turned out to be 8.28 ± 0.56, the activity coefficient (348.2 K) worked out at 7.84 ± 0.53, the activity coefficient (358.2 K) was found to be 7.58 ± 0.52 and the activity coefficient (368.2 K) turned out to be 7.37 ± 0.5.

For `CC(C)=O` [acetone] + CCCCn1cc[n+](C)c1.Cc1ccc(S(=O)(=O)[O-])cc1, the activity coefficient reads like this: (338.2 K) 1.48 ± 0.1; (348.2 K) 1.46 ± 0.1; (358.2 K) 1.45 ± 0.1; (368.2 K) 1.42 ± 0.09.

As to `c1ccccc1` [benzene] + CCCCn1cc[n+](C)c1.Cc1ccc(S(=O)(=O)[O-])cc1, the activity coefficient amounted to 1.96 ± 0.13 (338.2 K), 1.93 ± 0.13 (348.2 K), 1.93 ± 0.13 (358.2 K) and 1.93 ± 0.13 (368.2 K).

With `C1CCCCCC1` [cycloheptane] + CCCCn1cc[n+](C)c1.Cc1ccc(S(=O)(=O)[O-])cc1, the activity coefficient is, setting by setting: (338.2 K) 17.7 ± 1.2; (348.2 K) 16.3 ± 1.1; (358.2 K) 15.4 ± 1.1; (368.2 K) 14.5 ± 1.

For the compound `C1CCCCC1` [cyclohexane] + CCCCn1cc[n+](C)c1.Cc1ccc(S(=O)(=O)[O-])cc1, the activity coefficient (338.2 K) was 16.3 ± 1.1, the activity coefficient (348.2 K) came to 14.6 ± 1, the activity coefficient (358.2 K) came to 13.4 ± 0.9 and the activity coefficient (368.2 K) was 12.5 ± 0.9.

Consider `C1CCCCCCC1` [cyclooctane] + CCCCn1cc[n+](C)c1.Cc1ccc(S(=O)(=O)[O-])cc1, for which the activity coefficient by setting is: (338.2 K) 21.3 ± 1.5; (348.2 K) 19.7 ± 1.3; (358.2 K) 18.6 ± 1.3; (368.2 K) 17.6 ± 1.2.

`C1CCCC1` [cyclopentane] + CCCCn1cc[n+](C)c1.Cc1ccc(S(=O)(=O)[O-])cc1: the activity coefficient by setting is: (338.2 K) 11.3 ± 0.8; (348.2 K) 9.9 ± 0.7; (358.2 K) 9.3 ± 0.6; (368.2 K) 9 ± 0.6.

`CCCCCCCCCC` [decane] + CCCCn1cc[n+](C)c1.Cc1ccc(S(=O)(=O)[O-])cc1: the activity coefficient is, setting by setting: (338.2 K) 119 ± 8.1; (348.2 K) 106 ± 7.3; (358.2 K) 98.3 ± 6.7; (368.2 K) 90.8 ± 6.2.

Turning to `CCOCC` [diethyl ether] + CCCCn1cc[n+](C)c1.Cc1ccc(S(=O)(=O)[O-])cc1, the activity coefficient (338.2 K) is 6.57 ± 0.45, the activity coefficient (348.2 K) worked out at 6.36 ± 0.43, the activity coefficient (358.2 K) came out at 6.16 ± 0.42 and the activity coefficient (368.2 K) amounted to 5.93 ± 0.4.

Turning to `CCCOCCC` [dipropyl ether] + CCCCn1cc[n+](C)c1.Cc1ccc(S(=O)(=O)[O-])cc1, the activity coefficient runs as follows: (338.2 K) 15.5 ± 1.1; (348.2 K) 15.2 ± 1; (358.2 K) 14.2 ± 1; (368.2 K) 13.6 ± 0.9.

In the case of `CCO` [ethanol] + CCCCn1cc[n+](C)c1.Cc1ccc(S(=O)(=O)[O-])cc1, the activity coefficient came out at 0.359 ± 0.033 (338.2 K), 0.357 ± 0.033 (348.2 K), 0.358 ± 0.033 (358.2 K) and 0.358 ± 0.033 (368.2 K).

`CCc1ccccc1` [ethylbenzene] + CCCCn1cc[n+](C)c1.Cc1ccc(S(=O)(=O)[O-])cc1: the activity coefficient reads like this: (338.2 K) 4.45 ± 0.3; (348.2 K) 4.4 ± 0.3; (358.2 K) 4.36 ± 0.3; (368.2 K) 4.32 ± 0.29.

Consider `CCCCCCC` [heptane] + CCCCn1cc[n+](C)c1.Cc1ccc(S(=O)(=O)[O-])cc1, for which the activity coefficient runs as follows: (338.15 K) 48.1 ± 3.3; (348.15 K) 42.2 ± 2.9; (358.15 K) 39.2 ± 2.7; (368.15 K) 36.6 ± 2.5.

Turning to `C=CCCCC` [hex-1-ene] + CCCCn1cc[n+](C)c1.Cc1ccc(S(=O)(=O)[O-])cc1, the activity coefficient runs as follows: (338.2 K) 18 ± 1.2; (348.2 K) 16.6 ± 1.1; (358.2 K) 15.7 ± 1.1; (368.2 K) 14.9 ± 1.

Regarding `CCCCCC` [hexane] + CCCCn1cc[n+](C)c1.Cc1ccc(S(=O)(=O)[O-])cc1, the activity coefficient runs as follows: (338.15 K) 36.3 ± 2.5; (348.15 K) 31.5 ± 2.2; (358.15 K) 29.2 ± 2; (368.15 K) 27.6 ± 1.9.

Regarding `CO` [methanol] + CCCCn1cc[n+](C)c1.Cc1ccc(S(=O)(=O)[O-])cc1, the activity coefficient was 0.217 ± 0.029 (338.2 K), 0.219 ± 0.029 (348.2 K), 0.221 ± 0.029 (358.2 K) and 0.223 ± 0.029 (368.2 K).

For the compound `CCCCCCCCC` [nonane] + CCCCn1cc[n+](C)c1.Cc1ccc(S(=O)(=O)[O-])cc1, the activity coefficient is 86.1 ± 5.9 (338.2 K), 77.5 ± 5.3 (348.2 K), 71.3 ± 4.9 (358.2 K) and 66.5 ± 4.6 (368.2 K).

With `C=CCCCCCC` [oct-1-ene] + CCCCn1cc[n+](C)c1.Cc1ccc(S(=O)(=O)[O-])cc1, the activity coefficient is 33.1 ± 2.3 (338.2 K), 31 ± 2.1 (348.2 K), 29.5 ± 2 (358.2 K) and 28.2 ± 1.9 (368.2 K).

With `CCCCCCCC` [octane] + CCCCn1cc[n+](C)c1.Cc1ccc(S(=O)(=O)[O-])cc1, the activity coefficient worked out at 63.9 ± 4.4 (338.2 K), 57.7 ± 4 (348.2 K), 53 ± 3.6 (358.2 K) and 49.6 ± 3.4 (368.2 K).

Regarding `CCCC(C)=O` [pentan-2-one] + CCCCn1cc[n+](C)c1.Cc1ccc(S(=O)(=O)[O-])cc1, the activity coefficient stood at 2.68 ± 0.18 (338.2 K), 2.64 ± 0.18 (348.2 K), 2.61 ± 0.18 (358.2 K) and 2.58 ± 0.18 (368.2 K).

For the compound `CCC(=O)CC` [pentan-3-one] + CCCCn1cc[n+](C)c1.Cc1ccc(S(=O)(=O)[O-])cc1, the activity coefficient by setting is: (338.2 K) 2.68 ± 0.18; (348.2 K) 2.65 ± 0.18; (358.2 K) 2.63 ± 0.18; (368.2 K) 2.6 ± 0.18.

In the case of `CCCO` [propan-1-ol] + CCCCn1cc[n+](C)c1.Cc1ccc(S(=O)(=O)[O-])cc1, the activity coefficient runs as follows: (338.2 K) 0.437 ± 0.035; (348.2 K) 0.434 ± 0.035; (358.2 K) 0.437 ± 0.035; (368.2 K) 0.437 ± 0.035.

As for `C1CCOC1` [tetrahydrofuran] + CCCCn1cc[n+](C)c1.Cc1ccc(S(=O)(=O)[O-])cc1, the activity coefficient (338.2 K) came to 1.88 ± 0.13, the activity coefficient (348.2 K) was 1.87 ± 0.13, the activity coefficient (358.2 K) was determined as 1.86 ± 0.13 and the activity coefficient (368.2 K) amounted to 1.85 ± 0.12.

`c1ccsc1` [thiophene] + CCCCn1cc[n+](C)c1.Cc1ccc(S(=O)(=O)[O-])cc1: the activity coefficient is, setting by setting: (338.2 K) 1.11 ± 0.07; (348.2 K) 1.13 ± 0.07; (358.2 K) 1.14 ± 0.07; (368.2 K) 1.16 ± 0.07.

On to `Cc1ccccc1` [toluene] + CCCCn1cc[n+](C)c1.Cc1ccc(S(=O)(=O)[O-])cc1, for which the activity coefficient reads like this: (338.2 K) 3.03 ± 0.21; (348.2 K) 3.01 ± 0.2; (358.2 K) 2.99 ± 0.2; (368.2 K) 2.97 ± 0.2.

`O` [water] + CCCCn1cc[n+](C)c1.Cc1ccc(S(=O)(=O)[O-])cc1: the activity coefficient (338.2 K) turned out to be 0.191 ± 0.029, the activity coefficient (348.2 K) turned out to be 0.196 ± 0.029, the activity coefficient (358.2 K) turned out to be 0.201 ± 0.029 and the activity coefficient (368.2 K) turned out to be 0.207 ± 0.029.
